Our source for the IC50 values is patent US20250304551A1 (SHANGHAI APEIRON THERAPEUTICS COMPANY LIMITED, priority 2022, published 2025).

The target of assay [1] is T1, Human KIF18A (amino acid sequence 1-417) (Homo sapiens, UniProt Q8NI77).
T1 construct: purchased Viva Biotech (Shanghai) Ltd
The experiment in a line: Enzyme activity detection experiment (ADP-Glo, KIF18A with tubulin and ATP). The assay is classed as biochemical. To be noted: tubulin 60 μg/mL, ATP 25 μM, KIF18A protein 2.5 nM, 120 minutes at ambient temperature, ADP-Glo chemiluminescence. The method in brief: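 KIF18A (2.5 nM) was incubated with tubulin (60 μg/mL as added), ATP (25 μM) and serially diluted compound for 120 min at ambient temperature. ADP formed was detected by ADP-Glo: reagent for 30 min, then detection reagent for 30 min in the dark, with chemiluminescence read-out.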
In general terms: ADP-Glo first removes unused ATP, then detects ADP through luciferase.

Assay [2] concerns OVCAR3 cells. The experiment in a line: Cell proliferation activity test, OVCAR3 (CyQUANT Direct). Format: cell-based. To be noted: Homo sapiens, OVCAR-3, 72 h, 3 days incubation, CyQUANT fluorescence detection, read-out: OVCAR-3 Cell Viability_IC50_nM. The method in brief:
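OVCAR3 cells seeded overnight, then exposed to compounds at 0-10 μM final (0.20% DMSO) for 3 days at 37° C. Cell number read by CyQUANT Direct fluorescence after 60 min at 37° C.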

Assay [3] has as its system HT29 cells. Kind of assay: CyQuant cell proliferation activity test, HT29. The assay is classed as cell-based. To be noted: Homo sapiens, HT-29, 72 h, HT29 2000 cells per well, 3 days incubation, initial concentration 3000 nM, IC50 by XLFIT, read-out: HT-29 Cell Viability_IC50_nM. The method, then:
Materials and Cells: HT29 cells were purchased from Nanjing Cobioer Biosciences Co., Ltd.; RPM-1640 medium, fetal bovine serum, Trypsin-EDTA (0.25%), DMSO, 96-well plates, and CyQuant reagents were purchased from ThermoFisher (USA).
Cell Culture: Culture HT29 cells with RPMI-1640 containing 10% fetal bovine serum under the condition of 37° C. and 5% CO2. Only cells in the logarithmic growth phase can be used for the test.
Cell Proliferation Activity Test: Use the CyQuant reagent to detect the proliferation inhibitory activity of compounds on HT29 cells. Adjust the cell density and inoculate 100 μL per well into the 96-well plate (HT29 at 2000 cells per well), then incubate overnight under the condition of 37° C. and […]. Add compounds of various target concentrations (initial concentration of 3000 nM, 3-fold dilution, 9 concentration gradients), and make the DMSO content 0.20%. Incubate the cell plates at 37° C. and 5% CO2 for 3 days. Incubate with CyQuant reagent for 1 h, read the plate by Envision, and calculate IC50 using XLFIT.

T1 sequence (Q8NI77 1-417): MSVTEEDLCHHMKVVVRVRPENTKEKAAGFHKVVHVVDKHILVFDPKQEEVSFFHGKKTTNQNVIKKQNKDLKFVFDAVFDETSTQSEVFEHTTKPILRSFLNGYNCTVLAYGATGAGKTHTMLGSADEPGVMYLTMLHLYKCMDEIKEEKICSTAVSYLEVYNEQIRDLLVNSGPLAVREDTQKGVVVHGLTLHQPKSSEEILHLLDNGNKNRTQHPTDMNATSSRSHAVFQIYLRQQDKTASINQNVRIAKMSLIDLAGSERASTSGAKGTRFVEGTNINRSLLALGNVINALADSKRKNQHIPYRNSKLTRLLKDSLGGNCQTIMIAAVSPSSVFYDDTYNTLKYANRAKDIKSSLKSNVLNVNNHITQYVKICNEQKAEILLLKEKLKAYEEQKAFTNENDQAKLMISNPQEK
T1 sequence (Q2XVP4 whole entry partner): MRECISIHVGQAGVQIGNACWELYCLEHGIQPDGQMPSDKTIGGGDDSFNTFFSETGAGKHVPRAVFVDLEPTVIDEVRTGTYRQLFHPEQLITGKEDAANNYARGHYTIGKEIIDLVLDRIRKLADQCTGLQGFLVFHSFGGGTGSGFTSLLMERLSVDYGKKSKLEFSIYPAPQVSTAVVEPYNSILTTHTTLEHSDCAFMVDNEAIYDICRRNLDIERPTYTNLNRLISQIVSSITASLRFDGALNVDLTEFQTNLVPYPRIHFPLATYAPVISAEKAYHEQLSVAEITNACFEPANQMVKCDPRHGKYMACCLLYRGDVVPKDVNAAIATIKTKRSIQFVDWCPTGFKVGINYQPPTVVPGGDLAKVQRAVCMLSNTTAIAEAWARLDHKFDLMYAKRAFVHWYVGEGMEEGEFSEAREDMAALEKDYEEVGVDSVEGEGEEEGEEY
T1 sequence (P02554 whole entry partner): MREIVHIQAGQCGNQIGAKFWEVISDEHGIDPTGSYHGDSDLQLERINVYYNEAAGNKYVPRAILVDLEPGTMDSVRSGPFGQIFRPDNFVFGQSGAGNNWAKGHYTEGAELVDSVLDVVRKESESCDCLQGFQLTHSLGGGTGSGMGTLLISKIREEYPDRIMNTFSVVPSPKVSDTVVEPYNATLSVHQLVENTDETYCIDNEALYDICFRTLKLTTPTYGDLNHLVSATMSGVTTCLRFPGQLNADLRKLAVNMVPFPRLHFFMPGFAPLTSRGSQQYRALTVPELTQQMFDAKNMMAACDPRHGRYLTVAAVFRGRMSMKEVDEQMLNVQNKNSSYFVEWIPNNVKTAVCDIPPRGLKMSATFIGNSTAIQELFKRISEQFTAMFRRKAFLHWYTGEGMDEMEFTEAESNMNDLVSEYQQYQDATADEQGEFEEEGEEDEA

For the compound `Cc1cc(-c2cn(-c3ccc(NS(=O)(=O)CCO)cc3N3CCC4(CC3)CC4)nn2)nc(C2=CCOCC2)n1` [Example 35, N-(4-(4-(2-(3,6-dihydro-2H-pyran-4-yl)-6-methylpyrimidin-4-yl)-1H-1,2,3-triazol-1-yl)-3-(6-azaspiro[2.5]octan-6-yl)phenyl)-2-hydroxyethane-1-sulfonamide], the values for the IC50 in assay [1], in assay [2] and in assay [3] were 42 nM, 23 nM and 21 nM, respectively.

Consider `Cc1cc(-c2cn(-c3ccc(NS(=O)(=O)CCO)cc3N3CCC4(CC3)CC4)nn2)nc(C2CCOCC2)n1` [Example 36, 2-hydroxy-N-(4-(4-(6-methyl-2-(tetrahydro-2H-pyran-4-yl)pyrimidin-4-yl)-1H-1,2,3-triazol-1-yl)-3-(6-azaspiro[2.5]octan-6-yl)phenyl)ethane-1-sulfonamide], for which the IC50 is 50 nM in assay [1], 30 nM in assay [2] and 39 nM in assay [3].

As to `Cc1cc(-c2cn(-c3ccc(NS(=O)(=O)CCO)cc3N3CCC4(CC3)CC4)nn2)nc(C2=CCC(F)(F)CC2)n1` [Example 37, N-(4-(4-(2-(4,4-difluorocyclohex-1-en-1-yl)-6-methylpyrimidin-4-yl)-1H-1,2,3-triazol-1-yl)-3-(6-azaspiro[2.5]octan-6-yl)phenyl)-2-hydroxyethane-1-sulfonamide], the IC50 in assay [1] is 253 nM; in assay [2], 87 nM; in assay [3] it was 161 nM.

For `Cc1cc(-c2cn(-c3ccc(NS(=O)(=O)CCO)cc3N3CCC4(CC3)CC4)nn2)cc(-c2cnn(C)c2)n1` [Example 39, 2-hydroxy-N-(4-(4-(2-methyl-6-(1-methyl-1H-pyrazol-4-yl)pyridin-4-yl)-1H-1,2,3-triazol-1-yl)-3-(6-azaspiro[2.5]octan-6-yl)phenyl)ethane-1-sulfonamide], the IC50 in assay [1] came out at 414 nM; in assay [2], 1330 nM; in assay [3], 1570 nM.

With `Cc1cc(-c2cn(-c3ccc(NS(=O)(=O)CCO)cc3N3CCC4(CC3)CC4)nn2)nc(N2CCCCC2)n1` [Example 41, 2-hydroxy-N-(4-(4-(6-methyl-2-(piperidin-1-yl)pyrimidin-4-yl)-1H-1,2,3-triazol-1-yl)-3-(6-azaspiro[2.5]octan-6-yl)phenyl)ethanesulfonamide], the IC50 in assay [1] was found to be 44 nM; in assay [2] it was 15 nM; in assay [3], 14 nM.

For the compound `Cc1cc(-c2cn(-c3ccc(NS(=O)(=O)CCO)cc3N3CCC4(CC3)CC4)nn2)nc(N2CCOCC2)n1` [Example 42, 2-hydroxy-N-(4-(4-(6-methyl-2-morpholinopyrimidin-4-yl)-1H-1,2,3-triazol-1-yl)-3-(6-azaspiro[2.5]octan-6-yl)phenyl)ethanesulfonamide], the IC50 in assay [1] worked out at 19 nM; in assay [2], 12 nM; in assay [3], 15 nM.

For the compound `Cc1cc(-c2cn(-c3ccc(NS(=O)(=O)CCO)cc3N3CCC4(CC3)CC4)nn2)nc(N2CCO[C@@H](C)C2)n1` [Example 43, (S)-2-hydroxy-N-(4-(4-(6-methyl-2-(2-methylmorpholino)pyrimidin-4-yl)-1H-1,2,3-triazol-1-yl)-3-(6-azaspiro[2.5]octan-6-yl)phenyl)ethane-1-sulfonamide], the figures for the IC50 in assay [1], in assay [2] and in assay [3] were 44 nM, 16 nM and 18 nM, respectively.

For `Cc1cc(-c2cn(-c3ccc(NS(=O)(=O)CCO)cc3N3CCC4(CC3)CC4)nn2)nc(N2C[C@@H](C)O[C@@H](C)C2)n1` [Example 44, N-(4-(4-(2-((2R,6S)-2,6-dimethylmorpholino)-6-methylpyrimidin-4-yl)-1H-1,2,3-triazol-1-yl)-3-(6-azaspiro[2.5]octan-6-yl)phenyl)-2-hydroxyethane-1-sulfonamide], the IC50 was determined as 22 nM in assay [1], 14 nM in assay [2] and 12 nM in assay [3].

On to `Cc1cc(-c2cn(-c3ccc(NS(=O)(=O)CCO)cc3N3CCC4(CC3)CC4)nn2)nc(N2CCOCC2C)n1` (stereo not drawn) [Example 45], for which the IC50 was determined as 88 nM in assay [1], 22 nM in assay [2] and 13 nM in assay [3].

Regarding `Cc1cc(-c2cn(-c3ccc(NS(=O)(=O)CCO)cc3N3CCC4(CC3)CC4)nn2)nc(N2[C@H](C)COC[C@@H]2C)n1` [Example 46, N-(4-(4-(2-((3S,5R)-3,5-dimethylmorpholin)-6-methylpyrimidin-4-yl)-1H-1,2,3-triazol-1-yl)-3-(6-azaspiro[2.5]octan-6-yl)phenyl)2-hydroxyethanesulfonamide], the IC50 in assay [1] came to 151 nM; in assay [2], 14 nM; in assay [3] it was 39 nM.

For `Cc1cc(-c2cn(-c3ccc(NS(=O)(=O)CCO)cc3N3CCC4(CC3)CC4)nn2)nc(N2C3CCC2COC3)n1` [Example 48, N-(4-(4-(2-(3-oxa-8-azabicyclo[3.2.1]octan-8-yl)-6-methylpyrimidin-4-yl)-1H-1,2,3-triazol-1-yl)-3-(6-azaspiro[2.5]octan-6-yl)phenyl)-2-hydroxyethane-1-sulfonamide], the IC50 in assay [1] stood at 22 nM; in assay [2], 17 nM; in assay [3], 14 nM.

In the case of `Cc1cc(-c2cn(-c3ccc(NS(=O)(=O)CCO)cc3N3CCC4(CC3)CC4)nn2)nc(N2C3COCC2C3)n1` [Example 49, N-(4-(4-(2-(3-oxa-6-azabicyclo[3.1.1]heptan-6-yl)-6-methylpyrimidin-4-yl)-1H-1,2,3-triazol-1-yl)-3-(6-azaspiro[2.5]octan-6-yl)phenyl)-2-hydroxyethane-1-sulfonamide], the IC50 turned out to be 61 nM in assay [1], 54 nM in assay [2] and 31 nM in assay [3].

In the case of `Cc1cc(-c2cn(-c3ccc(NS(=O)(=O)CCO)cc3N3CCC4(CC3)CC4)nn2)nc(N2[C@H](C)CC(F)(F)C[C@@H]2C)n1` [Example 50, N-(4-(4-(2-((2S,6R)-4,4-difluoro-2,6-dimethylpiperidin-1-yl)-6-methylpyrimidin-4-yl)-1H-1,2,3-triazol-1-yl)-3-(6-azaspiro[2.5]octan-6-yl)phenyl)-2-hydroxyethane-1-sulfonamide], the figures for the IC50 in assay [1], in assay [2] and in assay [3] were 1050 nM, 222 nM and 245 nM, respectively.

As to `COc1cc(-c2cn(-c3ccc(NS(=O)(=O)CCO)cc3N3CCC4(CC3)CC4)nn2)nc(N2CCC(F)(F)CC2)n1` [Example 51, N-(4-(4-(2-(4,4-difluoropiperidin-1-yl)-6-methoxypyrimidin-4-yl)-1H-1,2,3-triazol-1-yl)-3-(6-azaspiro[2.5]octan-6-yl)phenyl)-2-hydroxyethanesulfonamide], the values for the IC50 in assay [1], in assay [2] and in assay [3] were 131 nM, 24 nM and 22 nM, respectively.

Consider `O=S(=O)(CCO)Nc1ccc(-n2cc(-c3cc(O)nc(N4CCC(F)(F)CC4)n3)nn2)c(N2CCC3(CC2)CC3)c1` [Example 52, N-(4-(4-(2-(4,4-difluoropiperidin-1-yl)-6-hydroxypyrimidin-4-yl)-1H-1,2,3-triazol-1-yl)-3-(6-azaspiro[2.5]octan-6-yl)phenyl)-2-hydroxyethane-1-sulfonamide], for which the IC50 in assay [1] worked out at 25 nM; in assay [2], 110 nM; in assay [3], 299 nM.

Take `COc1cc(-c2cn(-c3ccc(NS(=O)(=O)CCO)cc3N3CCC4(CC3)CC4)nn2)nc(N2[C@H](C)COC[C@@H]2C)n1` [Example 53, N-(4-(4-(2-((3S,5R)-3,5-dimethylmorpholino)-6-methoxypyrimidin-4-yl)-1H-1,2,3-triazol-1-yl)-3-(6-azaspiro[2.5]octan-6-yl)phenyl)-2-hydroxyethane-1-sulfonamide]: the IC50 in assay [1] was 296 nM; in assay [2], 35 nM; in assay [3] it was 47 nM.

Take `CN(C)c1cc(-c2cn(-c3ccc(NS(=O)(=O)CCO)cc3N3CCC4(CC3)CC4)nn2)nc(N2CCC(F)(F)CC2)n1` [Example 54, N-(3-{6-azaspiro[2.5]octan-6-yl}-4-{4-[2-(4,4-difluoropiperidin-1-yl)-6-(dimethylamino)pyrimidin-4-yl]-1H-1,2,3-triazol-1-yl}phenyl)-2-hydroxyethane-1-sulfonamide]: the results for the IC50 in assay [1], in assay [2] and in assay [3] were 277 nM, 84 nM and 73 nM, respectively.

For the compound `Nc1cc(-c2cn(-c3ccc(NS(=O)(=O)CCO)cc3N3CCC4(CC3)CC4)nn2)nc(N2CCC(F)(F)CC2)n1` [Example 55, N-(4-{4-[6-amino-2-(4,4-difluoropiperidin-1-yl)pyrimidin-4-yl]-1H-1,2,3-triazol-1-yl}-3-{6-azaspiro[2.5]octan-6-yl}phenyl)-2-hydroxyethane-1-sulfonamide], the IC50 amounted to 40 nM in assay [1], 3 nM in assay [2] and 3 nM in assay [3].
